Results reported in PubChem BioAssay (NCI).
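Abbreviation: GI50, concentration required for 50% inhibition of growth. TGI marks complete inhibition of growth.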

Key:
Test in all cases: NCI tumour cell line growth inhibition, 384-well format; in the data active = GI50 below about 0.43 µM; inactive = the rest
[1] = tested on: 786-0 renal
[2] = tested on: A498 renal
[3] = tested on: A549 NSCLC
[4] = tested on: ACHN renal
[5] = tested on: BT-549 breast
[6] = tested on: CAKI-1 renal
[7] = tested on: CCRF-CEM leukemia
[8] = tested on: COLO 205 colon
[9] = tested on: DU-145 prostate
[10] = tested on: EKVX NSCLC
[11] = tested on: HCC-2998 colon
[12] = tested on: HCT-116 colon
[13] = tested on: HCT-15 colon
[14] = tested on: HL-60(TB) leukemia
[15] = tested on: HOP-62 NSCLC
[16] = tested on: HOP-92 NSCLC
[17] = tested on: HS 578T breast
[18] = tested on: HT29 colon
[19] = tested on: IGROV1 ovarian
[20] = tested on: K-562 leukemia
[21] = tested on: KM12 colon
[22] = tested on: LOX IMVI melanoma
[23] = tested on: M14 melanoma
[24] = tested on: MALME-3M melanoma
[25] = tested on: MCF7 breast
[26] = tested on: MDA-MB-231 breast
[27] = tested on: MDA-MB-435 melanoma
[28] = tested on: MDA-MB-468 breast
[29] = tested on: MOLT-4 leukemia
[30] = tested on: NCI-H226 lung
[31] = tested on: NCI-H23 lung
[32] = tested on: NCI-H322M lung
[33] = tested on: NCI-H460 NSCLC
[34] = tested on: NCI-H522 lung
[35] = tested on: NCI/ADR-RES ovarian
[36] = tested on: OVCAR-3 ovarian
[37] = tested on: OVCAR-4 ovarian
[38] = tested on: OVCAR-5 ovarian
[39] = tested on: OVCAR-8 ovarian
[40] = tested on: PC-3 prostate
[41] = tested on: RPMI-8226 leukemia
[42] = tested on: RXF 393 renal
[43] = tested on: SF-268 CNS
[44] = tested on: SF-295 CNS
[45] = tested on: SF-539 CNS
[46] = tested on: SK-MEL-28 melanoma
[47] = tested on: SK-MEL-5 melanoma
[48] = tested on: SK-OV-3 ovarian
[49] = tested on: SN12C renal
[50] = tested on: SNB-19 CNS
[51] = tested on: SNB-75 CNS
[52] = tested on: SR leukemia
[53] = tested on: SW-620 colon
[54] = tested on: T-47D breast
[55] = tested on: TK-10 renal
[56] = tested on: U251 glioblastoma
[57] = tested on: UACC-257 melanoma
[58] = tested on: UACC-62 melanoma
[59] = tested on: UO-31 renal

CC1CCC(n2c3cnccc3c3cnc(Nc4ccc5c(n4)CCN(C(=O)CO)C5)nc32)CC1 (stereo not given)
> 81.2 µM: TGI [40]
66.9 µM: TGI [1]
> 73.9 µM: TGI [44]
> 28 µM: TGI [6]
> 94.8 µM: TGI [47]
> 40 µM: TGI [37]
1.71 µM: TGI [41]
2.31 µM: TGI [7]
1.75 µM: TGI [14]
57.8 µM: TGI [28]
14.2 µM: TGI [53]
15.2 µM: TGI [43]
14.4 µM: TGI [26]
> 100 µM: TGI [3] | TGI [10] | TGI [11] | TGI [13] | TGI [15] | TGI [17] | TGI [18] | TGI [19] | TGI [20] | TGI [22] | TGI [23] | TGI [24] | TGI [25] | TGI [27] | TGI [30] | TGI [31] | TGI [34] | TGI [35] | TGI [38] | TGI [39] | TGI [42] | TGI [45] | TGI [46] | TGI [48] | TGI [49] | TGI [50] | TGI [54] | TGI [55] | TGI [56] | TGI [57] | TGI [58] | TGI [59]
> 21.9 µM: TGI [4]
0.829 µM: TGI [52]
4.05 µM: TGI [21]
> 20.6 µM: TGI [16]
12.6 µM: TGI [36]
16.2 µM: TGI [12]
> 20.3 µM: TGI [51]
active: GI50 [14] 0.286 µM | GI50 [21] 0.293 µM | GI50 [29] 0.278 µM | GI50 [41] 0.253 µM | GI50 [52] 0.316 µM
9.42 µM: TGI [2]
42.2 µM: TGI [9]
> 72.4 µM: TGI [5]
inactive: GI50 [1] 12.4 µM | GI50 [2] 1.78 µM | GI50 [3] 2.15 µM | GI50 [4] 2.59 µM | GI50 [5] 6.54 µM | GI50 [6] 1.42 µM | GI50 [7] 0.638 µM | GI50 [8] 0.846 µM | GI50 [9] 7.86 µM | GI50 [11] 1.69 µM | GI50 [12] 1.69 µM | GI50 [13] 0.656 µM | GI50 [15] 3.66 µM | GI50 [16] 6.32 µM | GI50 [17] 18.3 µM | GI50 [18] 6.05 µM | GI50 [19] 8.39 µM | GI50 [20] 3.64 µM | GI50 [22] 2.4 µM | GI50 [23] 8.48 µM | GI50 [24] 19.8 µM | GI50 [25] 1.04 µM | GI50 [26] 2.91 µM | GI50 [27] 8.55 µM | GI50 [28] 13.5 µM | GI50 [30] 9.33 µM | GI50 [31] 3.4 µM | GI50 [32] 8.61 µM | GI50 [33] 0.749 µM | GI50 [34] 6.06 µM | GI50 [35] 13.9 µM | GI50 [36] 5.68 µM | GI50 [37] 15.1 µM | GI50 [38] 2.23 µM | GI50 [39] 6.42 µM | GI50 [40] 7.58 µM | GI50 [42] > 20.7 µM | GI50 [43] 4.47 µM | GI50 [45] 5.87 µM | GI50 [46] 11.9 µM | GI50 [47] 2.36 µM | GI50 [48] 21.6 µM | GI50 [49] 16.3 µM | GI50 [50] 7.56 µM | GI50 [51] 4.47 µM | GI50 [53] 1.05 µM | GI50 [54] > 100 µM | GI50 [55] 5.16 µM | GI50 [56] 7.16 µM | GI50 [57] > 100 µM | GI50 [58] 6.15 µM | GI50 [59] 15.1 µM
> 26.4 µM: TGI [32]
4.74 µM: TGI [33]
2.71 µM: TGI [29]
